Counter-ions that a name gives are not always drawn.
Biological target: T1, Rec. human COMT (Homo sapiens, UniProt P21964)
T1 sequence (P21964 1-271): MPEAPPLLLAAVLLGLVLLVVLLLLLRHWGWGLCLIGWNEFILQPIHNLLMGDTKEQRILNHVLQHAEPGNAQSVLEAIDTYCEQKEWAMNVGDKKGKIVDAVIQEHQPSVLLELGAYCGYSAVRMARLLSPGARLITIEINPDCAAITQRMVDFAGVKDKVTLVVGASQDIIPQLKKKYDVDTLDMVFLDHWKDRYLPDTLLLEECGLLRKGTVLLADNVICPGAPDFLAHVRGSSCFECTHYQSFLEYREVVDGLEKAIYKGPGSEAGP
Experiment: COMT-Fluorescence Assay
Format: biochemical
Details: COMT-fluorescence assay, rec. human COMT 25 nM, 4-Nitrocatechol-Alexa488 200 nM, SAM 500 nM; read-out: IC50
Description: This intramolecular interaction is disturbed if the 4-Nitrocatechol is methylated. […] This increase of fluorescence intensity can be followed in a kinetic measurement. The slope in the linear range of the kinetic is calculated. An inhibitor compound decreases the slope.
Signal [rfu/min]=(rfu(end-point)−rfu(startpoint))/incubation_time_#2

| SMILES | IC50 [nM] |
| --- | --- |
| CCN(CC)C(=O)c1ccc(-c2c(-c3ccc(F)cc3)cc(O)c3nc[nH]c(=O)c23)cc1 [Example 55, N,N-Diethyl-4-(6-(4-fluorophenyl)-8-hydroxy-4-oxo-3,4-dihydroquinazolin-5-yl)benzamide] | 10 |
| Cn1nccc1-c1cc(O)c2nc[nH]c(=O)c2c1 [Example 181, 8-Hydroxy-6-(1-methyl-1H-pyrazol-5-yl)quinazolin-4(3H)-one] | 20 |
| COC(=O)C(C)c1ccc(-c2ccccc2)c(-c2cc(O)c3nc[nH]c(=O)c3c2)c1 (racemic) [Example 32, (rac.) Methyl 2-(2-(8-hydroxy-4-oxo-3,4-dihydroquinazolin-6-yl)biphenyl-4-yl)propanoate] | 2000 |
| Cc1ccc(O)c2nc[nH]c(=O)c12 [Example 140, 8-Hydroxy-5-methylquinazolin-4(3H)-one] | 5040 |
| O=c1[nH]cnc2c(O)cc(Cc3ccccc3)cc12 [Example 9, 6-Benzyl-8-hydroxyquinazolin-4(3H)-one] | 1330 |
| O=c1[nH]cnc2c(O)ccc(Br)c12 [Example 1, 5-Bromo-8-hydroxyquinazolin-4(3H)-one] | 500 |
| O=c1[nH]cnc2c(O)cc(-c3cccc4cccnc34)cc12 [Example 167, 8-Hydroxy-6-(quinolin-8-yl)quinazolin-4(3H)-one] | 260 |
| Cn1cc(-c2cc(O)c3nc[nH]c(=O)c3c2)cn1 [Example 179, 8-Hydroxy-6-(1-methyl-1H-pyrazol-4-yl)quinazolin-4(3H)-one] | 90 |
| O=C(NCC(F)(F)F)c1cc(O)c2nc[nH]c(=O)c2c1 [Example 5, 8-Hydroxy-4-oxo-N-(2,2,2-trifluoroethyl)-3,4-dihydroquinazoline-6-carboxamide] | 660 |
| O=c1[nH]cnc2c(O)cc(-c3cncc4ccccc34)cc12 [Example 168, 8-Hydroxy-6-(isoquinolin-4-yl)quinazolin-4(3H)-one] | 30 |
| O=c1[nH]cnc2c(O)cc(C3CCc4ccccc4C3)cc12 (racemic) [Example 8, (rac.) 8-Hydroxy-6-(1,2,3,4-tetrahydronaphthalen-2-yl)quinazolin-4(3H)-one] | 100 |
| O=c1[nH]cnc2c(O)cc(C3=CCOCC3)cc12 [Example 70, 6-(3,6-Dihydro-2H-pyran-4-yl)-8-hydroxyquinazolin-4(3H)-one] | 20 |
| Cc1cc(-c2cc(O)c3nc[nH]c(=O)c3c2)ccn1 [Example 134, 8-Hydroxy-6-(2-methylpyridin-4-yl)quinazolin-4(3H)-one] | 10 |

Now from value to compound:

| IC50 [nM] | SMILES |
| --- | --- |
| 100 | Nc1c(-c2ccc(F)cc2)cc(O)c2nc[nH]c(=O)c12 [Example 253, 5-Amino-6-(4-fluorophenyl)-8-hydroxyquinazolin-4(3H)-one hydrobromide] |
| 36 | CN1CCC(CCOCc2ccccc2-c2cc(O)c3nc[nH]c(=O)c3c2)CC1 [Example 256, 8-Hydroxy-6-(2-((2-(1-methylpiperidin-4-yl)ethoxy)methyl)phenyl)quinazolin-4(3H)-one] |
| 30 | CN1CCN(C(=O)c2cccc(-c3cc(O)c4nc[nH]c(=O)c4c3)c2)CC1 [Example 191, 8-Hydroxy-6-[3-(4-methyl-piperazine-1-carbonyl)-phenyl]-3H-quinazolin-4-one] |
| 2530 | O=c1[nH]cnc2c(O)ccc(F)c12 [Example 197, 5-Fluoro-8-hydroxyquinazolin-4(3H)-one] |
| 1400 | CC(C)N(Cc1ccccc1-c1cc(O)c2nc[nH]c(=O)c2c1)C(C)C [Example 218, 6-(2-((Diisopropylamino)methyl)phenyl)-8-hydroxyquinazolin-4(3H)-one] |
| 10 | Cc1nc(-c2ccccc2)sc1-c1cc(O)c2nc[nH]c(=O)c2c1 [Example 203, 8-Hydroxy-6-(4-methyl-2-phenylthiazol-5-yl)quinazolin-4(3H)-one] |
| 60 | O=c1[nH]cnc2c(O)cc(-c3ccccc3Oc3ccccc3)cc12 [Example 222, 8-Hydroxy-6-(2-phenoxyphenyl)quinazolin-4(3H)-one] |
| 70 | CCOc1cc(F)ccc1-c1cc(O)c2nc[nH]c(=O)c2c1 [Example 211, 6-(2-Ethoxy-4-fluorophenyl)-8-hydroxyquinazolin-4(3H)-one] |
| 20 | O=c1[nH]cnc2c(O)c(F)c(-c3ccc(F)cc3)cc12 [Example 201, 7-Fluoro-6-(4-fluorophenyl)-8-hydroxyquinazolin-4(3H)-one] |

Same assay, conditions: IC50, COMT-fluorescence assay, rec. human COMT 25 nM, 4-Nitrocatechol-Alexa488 200 nM, SAM 500 nM

| IC50 [nM] | SMILES |
| --- | --- |
| 20 | CS(=O)(=O)c1cccc(-c2cc(O)c3nc[nH]c(=O)c3c2)c1 [Example 157, 8-Hydroxy-6-(3-(methylsulfonyl)phenyl)quinazolin-4(3H)-one] |
| 310 | CNCCc1ccccc1-c1cc(O)c2nc[nH]c(=O)c2c1 [Example 232, 8-Hydroxy-6-(2-(2-(methylamino)ethyl)phenyl)quinazolin-4(3H)-one] |
| 30 | Cc1ccc(-c2cc(O)c3nc[nH]c(=O)c3c2)cc1 [Example 130, 8-Hydroxy-6-p-tolylquinazolin-4(3H)-one] |

| SMILES | IC50 [nM] |
| --- | --- |
| CN1CCN(c2cc(O)c3nc[nH]c(=O)c3c2)CC1 [Example 190, 8-Hydroxy-6-(4-methyl-piperazin-1-yl)-3H-quinazolin-4-one] | 1290 |

System: rat anhedonia model
Experiment: not given
Details: cited from earlier work

| SMILES | anti-depressant activity |
| --- | --- |
| Cc1ccc(C(=O)c2cc(O)c(O)c([N+](=O)[O-])c2)cc1 [Tolcapone, tolcapone] | anti-depressant activity |

System: not given
Experiment: not given
Details: in vivo; cited from earlier work

| SMILES | brain/plasma ratio |
| --- | --- |
| Cc1ccc(C(=O)c2cc(O)c(O)c([N+](=O)[O-])c2)cc1 [Tolcapone, tolcapone] | ~0.01 |

System: patients with major depressive disorder (MDD)
Experiment: not given
Details: open clinical trial, 21 patients with MDD, 8 weeks, 400 mg b.i.d.; cited from earlier work

| SMILES | anti-depressant activity |
| --- | --- |
| Cc1ccc(C(=O)c2cc(O)c(O)c([N+](=O)[O-])c2)cc1 [Tolcapone, tolcapone] | anti-depressant activity |

Source: patent US9656971B2, “COMT inhibitors” (Hoffmann-La Roche Inc., priority 2012, dated 2017)
